Experiments:
[1] = molecular target: urease (Canavalia ensiformis, UniProt P07374); settings: cited from earlier work
[2] = Thermogravimetric analysis and isothermal study under air; type: physicochemical; settings: air atmosphere
[3] = similar conditions; U.S. Pat. No. 10,640,430; cited from earlier work
[4] = similar storage conditions; Soil Use and Management, 2008, 24, 246; cited from earlier work

Chain of urease (P07374 whole entry, looked up): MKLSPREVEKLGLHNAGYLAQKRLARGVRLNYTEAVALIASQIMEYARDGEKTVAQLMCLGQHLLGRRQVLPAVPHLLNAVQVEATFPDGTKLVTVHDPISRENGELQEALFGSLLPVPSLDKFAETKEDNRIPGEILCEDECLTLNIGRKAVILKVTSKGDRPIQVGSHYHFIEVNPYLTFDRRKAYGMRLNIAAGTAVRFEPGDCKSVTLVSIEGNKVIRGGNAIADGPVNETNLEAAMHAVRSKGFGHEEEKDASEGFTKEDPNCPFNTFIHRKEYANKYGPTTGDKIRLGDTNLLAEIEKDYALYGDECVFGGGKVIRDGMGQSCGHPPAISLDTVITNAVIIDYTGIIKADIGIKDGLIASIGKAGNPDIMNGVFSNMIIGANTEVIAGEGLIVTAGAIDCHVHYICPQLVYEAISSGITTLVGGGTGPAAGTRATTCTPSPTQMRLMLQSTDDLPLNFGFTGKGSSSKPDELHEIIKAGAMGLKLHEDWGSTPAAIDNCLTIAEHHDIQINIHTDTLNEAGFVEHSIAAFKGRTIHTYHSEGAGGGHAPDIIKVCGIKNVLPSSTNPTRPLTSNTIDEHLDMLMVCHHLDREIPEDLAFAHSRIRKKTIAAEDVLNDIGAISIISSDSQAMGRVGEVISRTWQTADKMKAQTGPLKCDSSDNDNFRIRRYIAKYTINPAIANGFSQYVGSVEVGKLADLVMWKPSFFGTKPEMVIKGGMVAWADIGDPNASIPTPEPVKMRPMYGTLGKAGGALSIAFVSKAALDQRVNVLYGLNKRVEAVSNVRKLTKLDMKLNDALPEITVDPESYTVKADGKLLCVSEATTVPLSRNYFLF

## NP(N)(=O)Nc1ccccc1[N+](=O)[O-]
[1]
  IC50: 3 nM

## Oc1cccc(-c2nc3ccccc3s2)c1 [BZT, 2-(3-Hydroxyphenyl) benzothiazole]
[2]; 140° C., 40 minutes
  amount of BZT lost (isothermal study): about 0.26%
[2]
  onset of degradation (TGA): 255.1 °C

## CCCCNP(N)(N)=S [NBTPT, N-(n-butyl) thiophosphoric triamide]
[3]
  degradation under urea melt conditions: significant degradation
[4]
  storage stability: unstable

## CCCCNP(N)(N)=S [drawing 22]
[1]
  IC50: 100 nM

Source: patent publication US20240327311A1, “Benzothiazole Derivative as a Urease Inhibitor for Fertilizer Application” (Sabic Agri-Nutrients Company, priority 2021, published 2024)
